How the values were obtained:
Olfr1377 = test: OR transcript level by RT-qPCR after in vivo odorant exposure; parameters: species or system mouse; key to olfr1377 candidate OR (RNAseq) confirmed by qPCR: The transcript downregulation of 21 out of the 26 olfactory receptor candidates obtained by RNAseq was confirmed by qPCR; false RNAseq positive candidates, namely OR candidates for which in fact mRNA was not downregulated following acetophenone exposure; settings: for Olfr1377 mRNA level relative to unexposed controls: 5% odorant, 5 hours, in vivo, RT-qPCR
Description: (§1) In vivo exposure to odorant: Starting 48 h before experiments, mice were habituated to pure DMSO on a cotton ball. 200 μl were pipetted directly onto the cotton and placed in the cage, replacing any cotton that was already in the cage for nest-making purposes.
(§2) On the day of the experiment, mice receiving odorants were transferred to a different room, where they were exposed to a cotton ball on which 200 μl of odorant diluted in pure DMSO were deposited. Exposures started in the morning between 8 and 10 am (that is two hours after lights were on) and mice were killed and dissected between 1 and 3 pm. […] If a number of different odorants were tested in the same experiment, a different overpressurized room would always be used for each odorant to avoid odor cross-contamination.
(§3) After odorant exposure, mice were killed by cervical dislocation and immediately decapitated. The main olfactory epithelia (MOE), were harvested in their entirety and transferred to a tube containing 600 μl of lysis buffer and β-mercaptoethanol (RNAeasy kit, Qiagen, following the manufacturer protocol) and a 0.5 cm diameter steel ball, and then put on ice. Samples were then homogenized using a FastPrep®-24 instrument (MP Biomedicals) at 6 m/s for 30 s and left on ice. RNA extraction was performed on all samples in parallel using the Qiagen RNeasy Mini® kit following the manufacturer's instructions. Two DNase treatments were performed on all samples: first using the Qiagen RNase-Free DNase Set® and then using the Life Technologies Ambion DNase I® kit. RNA samples were then aliquoted and stored at −80° C.
(§4) RNA concentrations were determined using an Amersham Ultrospec® 3100 Pro spectrophotometer, and RNA quality was evaluated with an Agilent Technologies 2100 Bioanalyzer®. […]
(§5) qPCR Ct values were analyzed using an in-house developed Microsoft Excel® macro file. […] Ct values were converted to quantities relative to the maximum for each given gene. Selected reference genes were then analyzed for variance using the geNorm algorithm. […]

Olfr983 [1] = test: as above; parameters: species or system mouse; key to olfr983 candidate OR (RNAseq) confirmed by qPCR: The transcript downregulation of 21 out of the 26 olfactory receptor candidates obtained by RNAseq was confirmed by qPCR; false RNAseq positive candidates, namely OR candidates for which in fact mRNA was not downregulated following acetophenone exposure; settings: for Olfr983 mRNA level relative to unexposed controls: 5% odorant, 5 hours, in vivo, RT-qPCR
Description: as §1, §2, §3, §4, §5

OSNs expressing olfr1135 = test: pS6 immunolabeling with OR in situ hybridization after odorant exposure; format: in vivo, mouse; parameters: key: y: neuronal activation (i.e. pS6 signal in a fraction of neuron exceeding 15% relative to controls); no pS6 signals; settings: 5% acetophenone, 60 minutes
Description: (§6) In order to independently validate the identity of an acetophenone receptor obtained with the RNAseq approach, the potential colocalization following acetophenone exposure of a neuronal activity marker (the phosphorylated ribosomal protein S6 (pS6) (Knight et al., 2012, Cell, 151, 1126-1137) and specific olfactory receptors were evaluated. To this aim, in-situ hybridizations were performed on sections of olfactory tissue with probes targeting receptor mRNAs followed by immunolabeling of pS6. The probes used were directed against the transcripts of most of the ORs determined as responsive including Olfr983 transcripts (encoding a known acetophenone receptor), Olfr171 transcripts (encoding a known ethyl isobutyrate receptor), and Olfr145 transcripts, encoding a newly identified receptor by RNAseq. Before analysis, mice were exposed to either 5% acetophenone, 5% ethyl isobutyrate, or a negative control condition for 60 minutes. […] 66% (Olfr983) and 70% (Olfr145) of the neurons were positive for pS6 after acetophenone exposure, while only 11% of the neurons expressing Olfr171 were positive for pS6 after exposure to this compound.

OSNs expressing olfr1350 = test: as above; format: in vivo, mouse; parameters: key: y: neuronal activation (i.e. pS6 signal in a fraction of neuron exceeding 15% relative to controls); no pS6 signals; settings: 5% acetophenone, 60 minutes
Description: as §6

OSNs expressing olfr378 = test: as above; format: in vivo, mouse; parameters: key: y: neuronal activation (i.e. pS6 signal in a fraction of neuron exceeding 15% relative to controls); no pS6 signals; settings: 5% acetophenone, 60 minutes
Description: as §6

OSNs expressing olfr490 = test: as above; format: in vivo, mouse; parameters: key: y: neuronal activation (i.e. pS6 signal in a fraction of neuron exceeding 15% relative to controls); no pS6 signals; settings: 5% acetophenone, 60 minutes
Description: as §6

OSNs expressing olfr750 = test: as above; format: in vivo, mouse; parameters: key: y: neuronal activation (i.e. pS6 signal in a fraction of neuron exceeding 15% relative to controls); no pS6 signals; settings: 5% acetophenone, 60 minutes
Description: as §6

Olfr983 [2] = settings: expressed in HEK cells; previously shown; read-out: EC50 as agonist of Olfr983; cited from earlier work
Olfr160 = settings: dissociated neurons; previously shown; read-out: EC50 as agonist of Olfr160; cited from earlier work

For CC(=O)c1ccccc1 [acetophenone], the “olfr1377 candidate OR (RNAseq) confirmed by qPCR” value (Olfr1377; 5% acetophenone exposure) was “y”, the “Olfr1377 mRNA level relative to unexposed controls” value (Olfr1377) was “decrease” and the “Olfr1377 mRNA level relative to unexposed controls” value (Olfr1377; listed as Acetophenone) was “downregulates”. For the same compound, the “olfr983 candidate OR (RNAseq) confirmed by qPCR” value (Olfr983 [1]; 5% acetophenone exposure) was “y”, the “Olfr983 mRNA level relative to unexposed controls” value (Olfr983 [1]) was “decrease” and the “Olfr983 mRNA level relative to unexposed controls” value (Olfr983 [1]; listed as Acetophenone) was “downregulates”. For the same compound, the “olfr1135 ps6 positive” value (OSNs expressing olfr1135) was “n”, the “olfr1350 ps6 positive” value (OSNs expressing olfr1350) was “n” and the “olfr378 ps6 positive” value (OSNs expressing olfr378) was “n”. The “olfr490 ps6 positive” value (OSNs expressing olfr490) was “n”, the “olfr750 ps6 positive” value (OSNs expressing olfr750) was “n” and the EC50 (Olfr983 [2]) was < 50 µM. For the same compound, the EC50 (Olfr160) was < 50 µM.

Reference: patent US10473645B2, “Methods for identifying a receptor for a ligand and uses thereof” (UNIVERSITE DE GENEVE, priority 2014, dated 2019)
